Values of other authors as cited in patent publication US6908953B2, “Polymerizable compositions based on epoxides” (ESPE Dental AG, priority 1998, dated 2005).

Columns and labels:
[1] = in vitro tests, prior-art epoxide monomers
[2] = prior-art epoxide monomers

O=C(OCC1CCC2OC2C1)C1CCC2OC2C1 (stereo not shown) [3,4-epoxycyclohexyl-methyl 3,4-epoxycyclohexanecarboxylate]
Mutagenic properties [1]: mutagenic properties
Cytotoxicity [2]: highly cytotoxic

O=C(CCCCC(=O)OC1CCC2OC2C1)OC1CCC2OC2C1 (stereo not shown) [bis(3,4-epoxycyclohexyl adipate)]
Mutagenic properties [1]: mutagenic properties
Cytotoxicity [2]: highly cytotoxic
